Data on nine compounds can be found in ChEMBL document CHEMBL1909046, “DrugMatrix in vitro pharmacology data”.

The target in data set [1] is T1, Type-2 angiotensin II receptor (Homo sapiens, UniProt P50052). Also: in other assays of this panel Not Active means under 50% inhibition at 10 µM.
T1 sequence (P50052 whole entry): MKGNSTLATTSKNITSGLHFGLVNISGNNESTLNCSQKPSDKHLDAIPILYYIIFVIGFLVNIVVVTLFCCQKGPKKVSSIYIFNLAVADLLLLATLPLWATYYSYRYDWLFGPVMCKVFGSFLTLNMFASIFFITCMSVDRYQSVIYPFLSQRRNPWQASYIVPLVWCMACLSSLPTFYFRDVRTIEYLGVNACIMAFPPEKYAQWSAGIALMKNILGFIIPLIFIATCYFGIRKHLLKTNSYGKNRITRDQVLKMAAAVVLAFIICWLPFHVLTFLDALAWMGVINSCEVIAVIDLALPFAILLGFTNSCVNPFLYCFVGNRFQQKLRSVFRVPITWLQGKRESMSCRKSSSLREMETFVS
The data set is classed as cell-based. The following applies: cho-k1.

Data set [2] is described as follows: DRUGMATRIX: Interleukin IL-1 radioligand binding (ligand: [125I] interleukin 1beta). The format is cell membranes, Membrane. The following applies: nih3t3; Not Active = under 50% inhibition at 10 µM.
Data set [3] concerns the target Protein kinase C alpha type (Homo sapiens, UniProt P17252). The data set is classed as cell-based. The following applies: sf9.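 Also: inhibition of PKCalpha kinase activity measured in an enzyme assay with histone as the phosphorylation substrate; in other assays of this panel Not Active means under 50% inhibition at 10 µM.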
Data set [4] has as its target Tyrosine-protein kinase Lck (Homo sapiens, UniProt P06239). Put plainly: DRUGMATRIX: Protein Tyrosine Kinase, LCK enzyme inhibition (substrate: Poly(Glu:Tyr)). The format is cell-based, Insect cells. The following applies: Not Active = under 50% inhibition at 10 µM.
The target of data set [5] is Kappa-type opioid receptor (Homo sapiens, UniProt P41145). Kind of data set: DRUGMATRIX: Opiate kappa (OP2, KOP) radioligand binding (ligand: [3H] Diprenorphine). The conditions noted are these: Not Active = under 50% inhibition at 10 µM. The format is cell membranes, HEK293, Membrane.
For a further data set, the target named is Nitric oxide synthase 1 (Rattus norvegicus, UniProt P29476). The data set is classed as tissue-based, Cerebellum. Also: in other assays of this panel Not Active means under 50% inhibition at 10 µM.
The target in the next data set is Melanocortin receptor 3 (Homo sapiens, UniProt P41968). The format is cell membranes, HEK293, Membrane. Also: in other assays of this panel Not Active means under 50% inhibition at 10 µM.
The next data set has as its target T2, Cytochrome P450 1A2 (Homo sapiens, UniProt P05177). Also: in other assays of this panel Not Active means under 50% inhibition at 10 µM.
T2 sequence (P05177 whole entry): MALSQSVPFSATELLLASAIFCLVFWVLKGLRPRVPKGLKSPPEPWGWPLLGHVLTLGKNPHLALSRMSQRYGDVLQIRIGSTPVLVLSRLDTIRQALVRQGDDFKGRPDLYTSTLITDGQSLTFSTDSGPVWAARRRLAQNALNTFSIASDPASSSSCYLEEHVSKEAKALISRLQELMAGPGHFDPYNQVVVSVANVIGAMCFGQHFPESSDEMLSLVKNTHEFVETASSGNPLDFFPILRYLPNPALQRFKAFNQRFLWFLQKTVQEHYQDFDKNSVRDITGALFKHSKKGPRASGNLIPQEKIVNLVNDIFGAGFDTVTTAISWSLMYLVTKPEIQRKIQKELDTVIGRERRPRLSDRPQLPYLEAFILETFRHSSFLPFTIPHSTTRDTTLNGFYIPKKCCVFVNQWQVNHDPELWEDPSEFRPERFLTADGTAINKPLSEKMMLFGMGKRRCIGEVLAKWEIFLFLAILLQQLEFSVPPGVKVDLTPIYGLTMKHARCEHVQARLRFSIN
The following applies: bti-tn-5b1-4.

Melanocortin receptor 3, sequence (P41968 whole entry): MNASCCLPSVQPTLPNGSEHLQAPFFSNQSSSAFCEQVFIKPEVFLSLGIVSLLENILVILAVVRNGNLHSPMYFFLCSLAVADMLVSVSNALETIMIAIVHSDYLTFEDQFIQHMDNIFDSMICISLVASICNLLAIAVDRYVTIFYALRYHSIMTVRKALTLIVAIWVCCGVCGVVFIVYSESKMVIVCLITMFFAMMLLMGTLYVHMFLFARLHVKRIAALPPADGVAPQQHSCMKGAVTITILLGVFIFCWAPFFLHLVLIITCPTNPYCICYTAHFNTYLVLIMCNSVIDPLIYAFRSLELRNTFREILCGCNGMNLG
Tyrosine-protein kinase Lck, sequence (P06239 whole entry): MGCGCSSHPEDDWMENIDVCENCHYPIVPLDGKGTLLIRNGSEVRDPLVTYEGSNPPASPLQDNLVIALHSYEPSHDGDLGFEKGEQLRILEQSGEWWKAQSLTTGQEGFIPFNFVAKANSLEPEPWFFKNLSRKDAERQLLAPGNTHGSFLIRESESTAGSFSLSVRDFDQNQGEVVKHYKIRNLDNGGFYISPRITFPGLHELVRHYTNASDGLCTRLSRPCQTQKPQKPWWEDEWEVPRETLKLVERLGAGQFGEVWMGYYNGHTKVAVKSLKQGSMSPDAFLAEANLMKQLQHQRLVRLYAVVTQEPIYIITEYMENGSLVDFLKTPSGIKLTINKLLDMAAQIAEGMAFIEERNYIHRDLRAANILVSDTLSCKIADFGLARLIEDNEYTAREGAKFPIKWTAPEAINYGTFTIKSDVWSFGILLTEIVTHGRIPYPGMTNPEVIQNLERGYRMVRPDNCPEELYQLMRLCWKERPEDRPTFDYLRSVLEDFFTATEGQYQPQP
Nitric oxide synthase 1, sequence (P29476 whole entry): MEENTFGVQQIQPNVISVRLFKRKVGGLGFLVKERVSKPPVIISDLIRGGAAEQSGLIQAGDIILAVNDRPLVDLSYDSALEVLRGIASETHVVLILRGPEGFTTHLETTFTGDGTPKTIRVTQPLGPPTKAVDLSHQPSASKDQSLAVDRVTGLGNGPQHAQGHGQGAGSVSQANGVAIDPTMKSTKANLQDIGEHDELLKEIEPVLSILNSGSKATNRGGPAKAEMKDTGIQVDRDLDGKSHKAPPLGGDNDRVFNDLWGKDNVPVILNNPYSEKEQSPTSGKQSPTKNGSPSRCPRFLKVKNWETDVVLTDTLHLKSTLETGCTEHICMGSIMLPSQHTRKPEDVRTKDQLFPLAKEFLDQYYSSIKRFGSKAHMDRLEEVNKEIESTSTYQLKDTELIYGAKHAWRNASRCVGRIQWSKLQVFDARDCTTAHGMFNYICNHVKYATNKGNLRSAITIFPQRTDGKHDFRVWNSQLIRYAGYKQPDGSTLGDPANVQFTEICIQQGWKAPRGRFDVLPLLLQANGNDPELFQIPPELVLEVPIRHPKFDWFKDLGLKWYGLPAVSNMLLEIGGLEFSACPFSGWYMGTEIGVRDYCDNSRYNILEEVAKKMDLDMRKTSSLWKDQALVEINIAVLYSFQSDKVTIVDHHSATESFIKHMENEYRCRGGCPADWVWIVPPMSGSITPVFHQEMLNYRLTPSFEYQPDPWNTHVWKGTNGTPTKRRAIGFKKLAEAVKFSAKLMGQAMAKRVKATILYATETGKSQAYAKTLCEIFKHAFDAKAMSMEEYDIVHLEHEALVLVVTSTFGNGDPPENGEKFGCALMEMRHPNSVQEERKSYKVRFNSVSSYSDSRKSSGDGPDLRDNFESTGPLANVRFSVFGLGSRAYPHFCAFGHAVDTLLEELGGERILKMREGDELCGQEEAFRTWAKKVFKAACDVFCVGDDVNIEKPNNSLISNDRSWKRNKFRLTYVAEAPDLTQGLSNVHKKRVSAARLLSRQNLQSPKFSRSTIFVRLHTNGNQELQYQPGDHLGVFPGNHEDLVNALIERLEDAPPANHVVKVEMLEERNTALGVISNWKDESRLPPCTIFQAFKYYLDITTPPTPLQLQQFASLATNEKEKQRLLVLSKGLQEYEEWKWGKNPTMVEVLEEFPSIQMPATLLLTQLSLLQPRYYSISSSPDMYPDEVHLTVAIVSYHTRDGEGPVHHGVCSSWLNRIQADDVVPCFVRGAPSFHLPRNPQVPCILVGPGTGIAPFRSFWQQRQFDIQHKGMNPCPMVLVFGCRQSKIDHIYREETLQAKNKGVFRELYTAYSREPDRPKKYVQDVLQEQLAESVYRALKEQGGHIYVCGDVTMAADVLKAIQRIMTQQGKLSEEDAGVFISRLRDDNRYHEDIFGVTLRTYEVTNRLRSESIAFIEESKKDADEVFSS
Kappa-type opioid receptor, sequence (P41145 whole entry): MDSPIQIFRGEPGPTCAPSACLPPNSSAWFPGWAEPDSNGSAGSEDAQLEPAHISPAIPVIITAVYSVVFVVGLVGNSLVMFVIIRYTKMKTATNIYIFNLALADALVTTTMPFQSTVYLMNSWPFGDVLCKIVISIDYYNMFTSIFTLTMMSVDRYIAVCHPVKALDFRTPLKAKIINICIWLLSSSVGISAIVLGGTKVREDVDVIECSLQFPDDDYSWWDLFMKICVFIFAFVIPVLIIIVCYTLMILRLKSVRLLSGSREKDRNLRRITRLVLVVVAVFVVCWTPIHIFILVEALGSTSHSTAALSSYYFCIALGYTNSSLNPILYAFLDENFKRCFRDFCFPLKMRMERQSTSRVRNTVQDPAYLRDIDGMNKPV

Take `Cc1c(C)c2c(c(C)c1O)CCC(C)(CN1CCN(c3cc(N4CCCC4)nc(N4CCCC4)n3)CC1)O2` (stereo not given): the IC50 entry was “Not Active” in data set [1]; “Not Active” in data set [2]; “Not Active” in data set [3]; 17.1 µM in data set [4] (read-out: IC50); “Not Active” in data set [5] (hek293); “Not Active” on Nitric oxide synthase 1. In addition, the IC50 at Melanocortin receptor 3 (read-out: IC50) was determined as 17.3 µM. Also, the figures for the Ki result (in data set [2]; on Melanocortin receptor 3 (read-out: Ki)) were “Not Active” and 15.1 µM, respectively.
Consider `CN(C)CCOC(c1ccccc1)c1ccccc1` [DIPHENHYDRAMINE], for which the IC50 result (in data set [1]; in data set [3]; in data set [4] (insect cells); in data set [5] (hek293); at Nitric oxide synthase 1; on Melanocortin receptor 3 (hek293)) was “Not Active” throughout.
For `Clc1ccc(COC(Cn2ccnc2)c2ccc(Cl)cc2Cl)cc1` (stereo not given) [ECONAZOLE], the IC50 result in data set [1] was “Not Active”; in data set [3], “Not Active”; in data set [4] (insect cells) it was “Not Active”; in data set [5] (read-out: IC50) it was 8.62 µM; against Nitric oxide synthase 1 it was “Not Active”. The same compound showed a Ki in data set [5] of 3.45 µM.
In the case of `Cc1ccc(NC(=O)c2ccc(CN3CCN(C)CC3)cc2)cc1Nc1nccc(-c2cccnc2)n1` [IMATINIB], the IC50 result (in data set [1]; in data set [3]; against Cytochrome P450 1A2; in data set [5] (hek293); on Nitric oxide synthase 1; at Melanocortin receptor 3 (hek293)) was “Not Active” throughout. Besides, on Cytochrome P450 1A2, the Ki result is “Not Active”.
On to `N#Cc1ccc(C(c2ccc(C#N)cc2)n2cncn2)cc1` [LETROZOLE], for which the IC50 entry (in data set [1]; in data set [2]; in data set [3]; in data set [4] (insect cells); in data set [5] (hek293); at Nitric oxide synthase 1) was “Not Active” each time. The IC50 entry against Melanocortin receptor 3 (hek293) is given as “Not Active”. Moreover, the Ki result in data set [2] was “Not Active”.
On to `CC[C@@H](C(=O)[C@@H](C)[C@@H](O)[C@H](C)[C@@H]1O[C@@H]([C@@H](CC)C(=O)O)CC[C@@H]1C)[C@H]1O[C@]2(C=C[C@@H](O)[C@]3(CC[C@@](C)([C@H]4CC[C@](O)(CC)[C@H](C)O4)O3)O2)[C@H](C)C[C@@H]1C` [SALINOMYCIN], for which the IC50 entry (in data set [1]; in data set [2]; in data set [3]; against Cytochrome P450 1A2; in data set [4] (insect cells); at Nitric oxide synthase 1) was “Not Active” throughout. Besides, on Melanocortin receptor 3 (hek293), the IC50 entry is “Not Active”. Besides, the Ki entry (in data set [2]; on Cytochrome P450 1A2) was “Not Active” each time.
`O=C(Nc1ccc(Br)cc1)c1cc(Br)cc(Br)c1O` [TRIBROMSALAN]: the IC50 result in data set [1] is “Not Active”; in data set [2] it was “Not Active”; in data set [3] it was “Not Active”; in data set [4] (read-out: IC50), 5.02 µM; at Nitric oxide synthase 1, “Not Active”; at Melanocortin receptor 3 (hek293), “Not Active”. Moreover, in data set [2], the Ki entry is reported as “Not Active”.
Turning to MANGANESE CHLORIDE ANHYDROUS, the IC50 result (in data set [1]; in data set [2]; in data set [3]; against Cytochrome P450 1A2; in data set [4] (insect cells); against Nitric oxide synthase 1) was “Not Active” each time. The IC50 result on Melanocortin receptor 3 (hek293) was “Not Active”. In addition, the Ki entry (in data set [1]; in data set [2]; in data set [3]; at Cytochrome P450 1A2; in data set [4] (insect cells); on Nitric oxide synthase 1) was “Not Active” in each case. For the same compound, on Melanocortin receptor 3 (hek293), the Ki result is “Not Active”.
With SODIUM ORTHOVANAD, the IC50 entry (in data set [1]; in data set [2]; in data set [3]; at Cytochrome P450 1A2; in data set [4] (insect cells); against Nitric oxide synthase 1) was “Not Active” each time. The IC50 entry at Melanocortin receptor 3 (hek293) is “Not Active”. The Ki entry (in data set [1]; in data set [2]; in data set [3]; on Cytochrome P450 1A2; in data set [4] (insect cells); on Nitric oxide synthase 1) was “Not Active” throughout. At Melanocortin receptor 3 (hek293), the Ki entry was “Not Active”.
